From ChEMBL document CHEMBL4665541, “Search for new therapeutic options for the uncommon pathogen Mycobacterium chimaera: an open drug discovery approach” (Lancet Microbe, 2021)

Tested on: Mycobacterium intracellulare subsp. chimaera
Assay: (§1) Inhibition of mycobacterial growth using the resazurin microtitre cell viability assay (REMA), compounds at final concentration of 20 µM (2% v/v DMSO). Hits were classed as compounds that inhibited bacterial growth by 70% or more compared to drug-free controls.
Format: functional, organism-based
Parameters: conc 20 uM
Conditions: NCTC13781

In order of falling Survival:
1. MMV019807  118%
2. MMV019721  114%
3. MMV020520  113%
4. MMV020591  112%
5. MMV020623  111%
6. MMV021057  110%
7. MMV020512  109%
8. MMV022236  109%
9. MMV023985  109%
10. MMV021660  107%
11. MMV023370  107%
12. MMV024114  106%
13. MMV024311  106%
14. MMV020120  104%
15. MMV023183  104%
16. MMV020289  103%
17. MMV020291  103%
18. MMV020982  103%
19. MMV024829  103%
20. MMV019790  102%
21. MMV020388  102%
22. MMV024443  101%
23. MMV024101  100%
24. MMV024406  100%
25. MMV022029  99.1%
26. MMV019993  98.9%
27. MMV020320  98.9%
28. MMV020165  98.7%
29. MMV024035  98.3%
30. MMV024397  98.2%
31. MMV023388  98%
32. MMV019742  97.5%
33. MMV020710  95.7%
34. MMV024195  94.1%
35. MMV020517  94%
36. MMV021375  93.8%
37. MMV023953  93.7%
38. MMV020670  93%
39. MMV019234  92.9%
40. MMV023969  92.8%
41. MMV020391  91.8%
42. MMV020321  91.7%
43. MMV020152  91.2%
44. MMV023233  90.8%
45. MMV023949  90.5%
46. MMV023860  90.3%
47. MMV019551  90.1%
48. MMV020136  88.5%
49. MMV021013  88%
50. MMV020081  87.7%
51. MMV023227  87.2%
52. MMV019838  81.2%
53. MMV020537  62.7%
54. MMV022478  3.7%

Tested on: Mycobacteroides abscessus
Assay: as §1
Format: functional, organism-based
Parameters: conc 20 uM
Conditions: ATCC19977

In order of falling Survival:
1. MMV020136  129%
2. MMV021057  126%
3. MMV019234  125%
4. MMV020520  125%
5. MMV019838  124%
6. MMV020982  124%
7. MMV020517  123%
8. MMV020710  123%
9. MMV020120  122%
10. MMV019721  121%
11. MMV020291  121%
12. MMV024114  121%
13. MMV022236  119%
14. MMV023183  119%
15. MMV024829  119%
16. MMV020081  118%
17. MMV020152  118%
18. MMV020623  118%
19. MMV022029  118%
20. MMV024397  118%
21. MMV023860  117%
22. MMV024035  117%
23. MMV019807  116%
24. MMV020512  116%
25. MMV023949  116%
26. MMV020321  115%
27. MMV024406  114%
28. MMV020289  113%
29. MMV020320  113%
30. MMV020388  113%
31. MMV020591  113%
32. MMV021375  111%
33. MMV020670  110%
34. MMV023370  109%
35. MMV020391  108%
36. MMV021013  108%
37. MMV019790  107%
38. MMV020165  106%
39. MMV023227  106%
40. MMV023233  106%
41. MMV020537  105%
42. MMV023953  104%
43. MMV019551  103%
44. MMV019742  103%
45. MMV024195  103%
46. MMV021660  102%
47. MMV023985  101%
48. MMV024311  96.6%
49. MMV023969  96%
50. MMV019993  95.9%
51. MMV024101  95.8%
52. MMV024443  94.5%
53. MMV023388  90.4%
54. MMV022478  13.3%

Tested on: Mycobacterium tuberculosis
Assay: as §1
Format: functional, organism-based
Parameters: conc 20 uM
Conditions: H37Rv

In order of falling Survival:
1. MMV024114  126%
2. MMV022236  109%
3. MMV020623  107%
4. MMV020591  106%
5. MMV019721  104%
6. MMV020512  104%
7. MMV020520  104%
8. MMV023370  102%
9. MMV024443  102%
10. MMV021013  100%
11. MMV023953  100%
12. MMV020670  99.7%
13. MMV024101  99.6%
14. MMV023388  99.3%
15. MMV019807  97.4%
16. MMV019993  97%
17. MMV021057  96.6%
18. MMV019742  96%
19. MMV020391  95.4%
20. MMV020120  94.3%
21. MMV020537  94.1%
22. MMV023949  92.7%
23. MMV022029  90.8%
24. MMV020291  90.7%
25. MMV020321  90.7%
26. MMV019790  90.2%
27. MMV021375  89.6%
28. MMV020081  89.4%
29. MMV023233  89.1%
30. MMV024406  89%
31. MMV024829  88.9%
32. MMV024397  88.8%
33. MMV020136  88.7%
34. MMV020388  88.5%
35. MMV023183  88.3%
36. MMV020710  86.9%
37. MMV020289  86.3%
38. MMV024035  85.9%
39. MMV023227  85.3%
40. MMV023985  85.1%
41. MMV023860  84.6%
42. MMV020982  84.3%
43. MMV019838  84.2%
44. MMV020165  82.1%
45. MMV020517  79.9%
46. MMV020152  78.2%
47. MMV019234  78.1%
48. MMV019551  77.8%
49. MMV024311  74.4%
50. MMV024195  74.2%
51. MMV021660  67.5%
52. MMV020320  42.2%
53. MMV023969  19.5%
54. MMV022478  3.81%
